Measurements taken from patent publication US20240350643A1, “PROTEIN DEGRADATION AGENT” (SUZHOU KINTOR PHARMACEUTICALS, INC., priority 2021, published 2024).
Like-named read-outs stand apart in the source and are kept apart here.

How the values were obtained:
[1] = target: T1, c-Myc protein (Homo sapiens, UniProt P01106); assay: Ability of compounds to degrade c-Myc protein in HL60 cells (ELISA); format: cell-based; conditions: HL-60, 1 μM compound, 24 h, read-out: HL60 cells Protein degradation rate (1 μM)
T1 construct: endogenous in cells; host or cells: HL60 cells

[2] = system: HL60 cells; assay: Anti-proliferation ability of compounds on HL60 cells (CTG); format: cell-based, human; conditions: 3 days, CellTiter-Glo, read-out: HL60 cells Proliferation inhibitory activity
Outline: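 Proliferation inhibition IC50 derived from CellTiter-Glo luminescence after 3-day compound treatment of HL60 cells plated at 20000 per well, against 0.1% DMSO controls.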

T1 sequence (P01106 whole entry): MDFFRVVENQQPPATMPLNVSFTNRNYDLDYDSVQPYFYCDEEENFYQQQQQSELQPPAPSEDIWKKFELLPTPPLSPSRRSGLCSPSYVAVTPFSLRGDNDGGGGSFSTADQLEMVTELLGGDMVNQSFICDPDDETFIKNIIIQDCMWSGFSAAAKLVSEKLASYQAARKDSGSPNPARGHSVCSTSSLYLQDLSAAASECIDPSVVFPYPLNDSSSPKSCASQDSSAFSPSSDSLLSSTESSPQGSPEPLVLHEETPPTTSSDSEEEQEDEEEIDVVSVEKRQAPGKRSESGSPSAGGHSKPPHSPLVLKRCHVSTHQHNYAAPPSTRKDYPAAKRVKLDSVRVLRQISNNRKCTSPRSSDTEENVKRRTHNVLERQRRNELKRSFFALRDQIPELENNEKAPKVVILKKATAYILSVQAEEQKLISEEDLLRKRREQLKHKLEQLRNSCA

Compound	inhibition at 1 µM [1] [%]	IC50 ([2]; Homo sapiens, HL-60, 72 h) [nM]	IC50 [2] [nM]
O=C(Cc1cccc2ccccc12)NCc1ccc(CNC(=O)c2ccc3c(c2)CN(C2CCC(=O)NC2=O)C3=O)c(C(F)(F)F)c1 (stereo not shown) [A159]	60 to 90	2.2 ± 0.8	
O=C(Cn1c2ccccc2c2cccnc21)NCc1ccc(CNC(=O)c2ccc3c(c2)CN(C2CCC(=O)NC2=O)C3=O)c(C(F)(F)F)c1 (stereo not shown) [A160]	60 to 90		0.4 ± 0.3
O=C(Cc1c(F)ccc2ccccc12)NCc1ccc(CNC(=O)c2ccc3c(c2)CN(C2CCC(=O)NC2=O)C3=O)c(C(F)(F)F)c1 (stereo not shown) [A161]	60 to 90	0.9 ± 0.1	
O=C(Cc1cccc2ccc(F)cc12)NCc1ccc(CNC(=O)c2ccc3c(c2)CN(C2CCC(=O)NC2=O)C3=O)c(C(F)(F)F)c1 (stereo not shown) [A162]	60 to 90	1.9 ± 0.2	
O=C1CCC(N2Cc3cc(C(=O)NCc4ccc(C5(NC(=O)Cc6cccc7ccccc67)CC5)cc4F)ccc3C2=O)C(=O)N1 (stereo not shown) [A163]	60 to 90	1.3 ± 0.3	
O=C1CCC(N2Cc3cc(C(=O)NCc4ccc(C5(NC(=O)Cn6c7ccccc7c7cccnc76)CC5)cc4F)ccc3C2=O)C(=O)N1 (stereo not shown) [A164]	60 to 90	2.4 ± 0.3	
O=C(Cc1cccc2ccccc12)NCc1ccc(CC(=O)Nc2ccc3c(c2)C(=O)N(C2CCC(=O)NC2=O)C3=O)cc1 (stereo not shown) [A165]	60 to 90	27.9 ± 19.5	
O=C(Cn1c2ccccc2c2cccnc21)NCc1ccc(CC(=O)Nc2ccc3c(c2)C(=O)N(C2CCC(=O)NC2=O)C3=O)cc1 (stereo not shown) [A166]	60 to 90	1.7 ± 0.3	
CN(CCc1cccc2ccccc12)Cc1ccc(CC(=O)Nc2ccc3c(c2)C(=O)N(C2CCC(=O)NC2=O)C3=O)cc1 (stereo not shown) [A167]	60 to 90	2.1 ± 1.1	
CN(CCn1c2ccccc2c2cccnc21)Cc1ccc(CC(=O)Nc2ccc3c(c2)C(=O)N(C2CCC(=O)NC2=O)C3=O)cc1 (stereo not shown) [A168]	60 to 90	2.6 ± 0.7	
CN(CCc1ccc(Cl)cc1Cl)Cc1ccc(CC(=O)Nc2ccc3c(c2)C(=O)N(C2CCC(=O)NC2=O)C3=O)cc1 (stereo not shown) [A169]	60 to 90	1.9 ± 0.6	
CN(CCc1ccc(Cl)c(Cl)c1)Cc1ccc(CC(=O)Nc2ccc3c(c2)C(=O)N(C2CCC(=O)NC2=O)C3=O)cc1 (stereo not shown) [A170]	60 to 90	4 ± 1.7	
O=C(Cn1c2ccccc2c2cccnc21)NCc1ccc(CC(=O)Nc2ccc3c(c2)CN(C2CCC(=O)NC2=O)C3=O)cc1 (stereo not shown) [A171]	60 to 90	0.3 ± 0.2	
O=C(Cc1nccc2ccccc12)NCc1ccc(CC(=O)Nc2ccc3c(c2)CN(C2CCC(=O)NC2=O)C3=O)cc1 (stereo not shown) [A172]	60 to 90	< 3	
O=C(Cc1cccc2cccnc12)NCc1ccc(CC(=O)Nc2ccc3c(c2)CN(C2CCC(=O)NC2=O)C3=O)cc1 (stereo not shown) [A173]	60 to 90	< 3	
CN(CCc1ccc(Cl)cc1Cl)Cc1ccc(CC(=O)Nc2ccc3c(c2)CN(C2CCC(=O)NC2=O)C3=O)c(F)c1 (stereo not shown) [A174]	60 to 90	< 3	
O=C(Cc1cccc2ccccc12)NCc1ccc(CNCc2ccc3c(c2)C(=O)N(C2CCC(=O)NC2=O)C3=O)cc1 (stereo not shown) [A175]	60 to 90	14.4 ± 6.4	
O=C(Cn1c2ccccc2c2cccnc21)NCc1ccc(CNCc2ccc3c(c2)C(=O)N(C2CCC(=O)NC2=O)C3=O)cc1 (stereo not shown) [A176]	60 to 90	2.1 ± 0.6	
O=C(Cc1cccc2ccccc12)NCc1ccc(C(=O)NCc2ccc3c(c2)C(=O)N(C2CCC(=O)NC2=O)C3=O)cc1 (stereo not shown) [A177]	60 to 90	9.5	
O=C(Cn1c2ccccc2c2cccnc21)NCc1ccc(C(=O)NCc2ccc3c(c2)C(=O)N(C2CCC(=O)NC2=O)C3=O)cc1 (stereo not shown) [A178]	60 to 90	16.9	
